Test system: PD-1, LAG3 and TIM3 expression by CD3+ T cells
Assay: Cell-based assay of immune checkpoint expression by T lymphocytes (flow cytometry)
Parameters: species or system human
Conditions: for PD-1, LAG3 and TIM3 expression by CD3+ T cells: PBMC activated with CD3/CD28 antibodies-coated beads, stimulated for 3 days, FIG. 4; for co-expression profile of PD-1, LAG3 and TIM3 immune checkpoint receptors on activated CD3+ T cells: healthy donors PBMC, FIG. 5, representative of n=6
Text: PBMC were obtained from human healthy donors (Etablissement Français du Sang, Toulouse, France) after Ficoll-Hypaque (GE Healthcare) density centrifugation and cultured in RPMI 1640 medium (ThermoFisher Scientific) supplemented with 10% fetal bovine serum (ThermoFisher Scientific) and L-glutamine (SIGMA Aldrich).
Cell-Based Assay of Immune Checkpoint Expression by T Lymphocytes.
PBMC isolated from healthy donors were activated with CD3/CD28 antibodies-coated beads (ThermoFisher Scientific). When drugs were used (A-92 (1 μM) or GSK2606414 (GSK, 10 μM)), they were added simultaneously to the stimulation. After 3 days of in vitro culture, cells were processed for qRT-PCR, immunoblotting or flow cytometry analysis.

Row | SMILES | PD-1, LAG3 and TIM3 expression by CD3+ T cells (GSK2606414 10 μM) | co-expression profile of PD-1, LAG3 and TIM3 immune checkpoint receptors on activated CD3+ T cells (GSK2606414 10 μM) | PD-1, LAG3 and TIM3 expression by CD3+ T cells (A-92 1 μM) | co-expression profile of PD-1, LAG3 and TIM3 immune checkpoint receptors on activated CD3+ T cells (A-92 1 μM)
1 | Cn1cc(-c2ccc3c(c2)CCN3C(=O)Cc2cccc(C(F)(F)F)c2)c2c(N)ncnc21 [GSK2606414, 1-[5-(4-amino-7-methylpyrrolo[2,3-d]pyrimidin-5-yl)-2,3-dihydroindol-1-yl]-2-[3-(trifluoromethyl)phenyl]ethanone] | impair immune checkpoints expression | impair immune checkpoints expression simultaneously | – | –
2 | c1nn(C2CCOCC2)cc1Nc1ncc2nnn(-c3ccc4cn[nH]c4c3)c2n1 [A-92, 3-(1H-indazol-6-yl)-N-[1-(oxan-4-yl)pyrazol-4-yl]triazolo[4,5-d]pyrimidin-5-amine] | – | – | impair immune checkpoints expression | impair immune checkpoints expression simultaneously
